Test [1] deals with SNU449Tp cells. Briefly: Cell growth over time of TM4SF5-expressing cells (FIG. 43, right). Particulars: TSAHC at given concentrations. Format: cell-based, human. Here is the method: Arrows indicate the overlapping nuclei of cells undergoing cell division. […] In addition, in order to measure the growth rates of the cells, 5×10^4 cells were plated onto 6-well plates and counted every 12 hrs. The results are expressed as a graph. […] This was observed even at a low cell density. That is, among cells at a low density, TM4SF5-expressing cells proliferated through cell division, during which two nuclei overlapped each other.

Test [2] deals with SNU449Tp cells. Briefly: Immunofluorescent staining for E-cadherin and β-catenin, cell-cell contact (FIG. 45). Format: cell-based, human. The following applies: 20 μM. Here is the method:
When cells were transfected with given specific genes or infected with various viruses, they were used after being cultured for a given period of time. Cells treated with 10 mM lysophosphatidic acid (LPA) were used 1 hour after being attached to cover glasses. Immunofluorescent staining was carried out by preparing a slide for fluorescent analysis through incubation with a primary antibody against a target protein, washing out unbound antibody molecules, incubation with a fluorescein-conjugated secondary antibody and washing out unbound antibody molecules, and actin filament staininh was carried out with rhodamine-conjugated phalloidin. Antibodies used included antibodies against E-cadherin, β-catenin, FLAG, 4′-6-diamidino-2-phenylindole (DAPI), 5-brorno-2′-deoxy-uridine (BrdU), p27^kip1, ZO1 (zonula occludens-1), and the like. Immunofluorescent stained cover glasses were placed on slides and observed under a fluorescence microscope or a confocal laser scanning microscope.

In test [3] the test system is cells endogenously expressing TM4SF5. Briefly: Growth/proliferation of cells endogenously expressing TM4SF5 (FIG. 51). In kind it is cell-based.
Test [4] concerns SNU449Tp cells. Nature of the test: Comparison of TSAHC and analogues: cell morphology and multilayer growth by optical microscope (FIG. 69). In kind it is cell-based, human. The following applies: 20 μM, 24 hr treatment. Here is the method: TSAHC and its structural analogues were compared for their effects on TM4SF5-mediated events. Dimethyl sulfoxide (DMSO) and chalcone analogues, used in this test, have the following chemical structure.
SNU449 Cp cells and SNU449Tp cells were plated onto 6-well plates and treated with the above compounds at 20 μM for 24 hrs. Cells were monitored for changes in cell morphology using an optical microscope.

For the compound `Cc1ccc(S(=O)(=O)Nc2ccc(C(=O)/C=C/c3ccc(O)cc3)cc2)cc1` [Compound 1, 4′-(p-toluenesulfonylamino)-4-hydroxychalcone], in test [1], the “growth over time of TM4SF5-expressing cells” value was “reduced linear growth over time in a manner dependent on TSAHC concentrations”. Also, the cell-cell contact result in test [2] was “restored cell-cell contact”. Besides, the “growth or proliferation of cells endogenously expressing TM4SF5” value in test [3] is on record as “inhibited the growth or proliferation of cells endogenously expressing TM4SF5”. In addition, in test [4], the TM4SF5-mediated multilayer growth entry is on record as “effectively stimulate the growth of TM4SF5-expressing cells, not in a multilayer but in a monolayer arrangement” and the cell morphology result was “changed the cell morphology into the same shape as that of SNU449 control cells not expressing TM4SF5”.

The values above are taken from patent US9072698B2, “Method for screening anti-cancer compounds inhibiting function of TM4SF5 and anti-cancer composition containing chalcone compounds” (Seoul National University Industry Foundation, priority 2006, dated 2015).
